Active and inactive are the calls of the source. No cut-off for these calls is given here.
What was measured:
[1] = (§1) Inhibition of nAChR-mediated twitch response in mouse hemidiaphragm
Mus musculus [2] = species: Mus musculus; experiment: as §1
Mus musculus [3] = species: Mus musculus; experiment: Inhibition of nAChR-mediated twitch response in mouse hemidiaphragm at IC90 in presence of neostigmine bromide

CC(=O)O[C@H]1[C@@H]([N+]2(C)CCOCC2)C[C@H]2[C@@H]3CC[C@H]4C[C@@H]([N+](C)(C)c5ccccc5)CC[C@]4(C)[C@H]3CC[C@@]21C
IC50 [1]: 12.7 µM | IC90 (Mus musculus [2]): 18.2 µM

CC(=O)O[C@H]1CC[C@@]2(C)[C@@H](CC[C@@H]3[C@@H]2CC[C@@]2(C)[C@H]3C[C@H]([N+]3(C)CCOCC3)[C@@H]2OC(C)=O)C1
IC50 [1]: 19.8 µM | IC90 (Mus musculus [2]): 29.4 µM

CC(=O)O[C@H]1[C@@H]([N+]2(C)CCOCC2)C[C@H]2[C@@H]3CC[C@H]4C[C@@H]([N+]5(C)CCCC5)CC[C@]4(C)[C@H]3CC[C@@]21C
IC50 [1]: 10.7 µM | IC90 (Mus musculus [2]): 15.7 µM

C[C@]12CC[C@H]([N+]3(C)CCOCC3)C[C@@H]1CC[C@@H]1[C@@H]2CC[C@]2(C)[C@@H](O)[C@@H]([N+]3(C)CCOCC3)C[C@@H]12
IC50 [1]: 38.9 µM

CC(=O)O[C@H]1[C@@H]([N+]2(C)CCOCC2)C[C@H]2[C@@H]3CC[C@H]4C[C@@H]([N+](C)(C)Cc5ccccc5)CC[C@]4(C)[C@H]3CC[C@@]21C
IC50 [1]: 4.54 µM | IC90 (Mus musculus [2]): 6.38 µM | inhibition (Mus musculus [3]): inactive

CC(=O)O[C@H]1[C@@H]([N+]2(C)CCOCC2)C[C@H]2[C@@H]3CC[C@H]4C[C@H](N5CC[N+](C)(C)CC5)CC[C@]4(C)[C@H]3CC[C@@]21C
IC50 [1]: 39.1 µM

CC(=O)O[C@H]1[C@@H]([N+]2(C)CCOCC2)C[C@H]2[C@@H]3CC[C@H]4C[C@H]([N+](C)(C)C)CC[C@]4(C)[C@H]3CC[C@@]21C
IC50 [1]: 17.4 µM

C[C@]12CC[C@H]([N+](C)(C)C)C[C@@H]1CC[C@@H]1[C@@H]2CC[C@]2(C)[C@@H](O)[C@@H]([N+]3(C)CCOCC3)C[C@@H]12
IC50 [1]: 21.4 µM

CC(=O)O[C@H]1C[C@@H]2CC[C@@H]3[C@H](CC[C@@]4(C)[C@H]3C[C@H]([N+]3(C)CCCCC3)[C@@H]4OC(C)=O)[C@@]2(C)C[C@@H]1N1CCCCC1 [VECURONIUM BROMIDE]
IC50 [1]: 0.31 µM | IC90 (Mus musculus [2]): 0.44 µM

C=CC[N+]1([C@H]2C[C@H]3[C@@H]4CC[C@H]5C[C@H](O)[C@@H](N6CCOCC6)C[C@]5(C)[C@H]4CC[C@]3(C)[C@H]2OC(C)=O)CCCC1 [ROCURONIUM BROMIDE]
IC50 [1]: 2.5 µM | IC90 (Mus musculus [2]): 3.53 µM

C[C@]12CC[C@H]([N+](C)(C)Cc3ccccc3)C[C@@H]1CC[C@@H]1[C@@H]2CC[C@]2(C)[C@@H](O)[C@@H]([N+]3(C)CCOCC3)C[C@@H]12
IC50 [1]: 18.5 µM

CC(=O)O[C@H]1[C@@H]([N+]2(C)CCOCC2)C[C@H]2[C@@H]3CC[C@H]4C[C@H]([N+]5(C)CCCC5)CC[C@]4(C)[C@H]3CC[C@@]21C
IC50 [1]: 18.6 µM

C[C@]12CC[C@H]([N+]3(C)CCCC3)C[C@@H]1CC[C@@H]1[C@@H]2CC[C@]2(C)[C@@H](O)[C@@H]([N+]3(C)CCOCC3)C[C@@H]12
IC50 [1]: 27.6 µM

C[C@]12CC[C@H](N3CC[N+](C)(C)CC3)C[C@@H]1CC[C@@H]1[C@@H]2CC[C@]2(C)[C@@H](O)[C@@H]([N+]3(C)CCOCC3)C[C@@H]12
IC50 [1]: 24.5 µM

C[C@]12CC[C@H]([N+](C)(C)c3ccccc3)C[C@@H]1CC[C@@H]1[C@@H]2CC[C@]2(C)[C@@H](O)[C@@H]([N+]3(C)CCOCC3)C[C@@H]12
IC50 [1]: 16.2 µM

CC(=O)O[C@H]1[C@@H]([N+]2(C)CCOCC2)C[C@H]2[C@@H]3CC[C@H]4C[C@@H]([N+](C)(C)C)CC[C@]4(C)[C@H]3CC[C@@]21C
IC50 [1]: 16.6 µM | IC90 (Mus musculus [2]): 25 µM

CC(=O)O[C@H]1[C@@H]([N+]2(C)CCOCC2)C[C@H]2[C@@H]3CC[C@H]4C[C@@H](N5CC[N+](C)(C)CC5)CC[C@]4(C)[C@H]3CC[C@@]21C
IC50 [1]: 13.1 µM | IC90 (Mus musculus [2]): 18.6 µM

CC(=O)O[C@H]1[C@@H]([N+]2(C)CCOCC2)C[C@H]2[C@@H]3CC[C@H]4C[C@@H]([N+]5(C)CCOCC5)CC[C@]4(C)[C@H]3CC[C@@]21C
IC50 [1]: 33.9 µM | IC90 (Mus musculus [2]): 50.7 µM

CC(=O)O[C@H]1[C@@H]([N+]2(C)CCOCC2)C[C@H]2[C@@H]3CC[C@H]4C[C@@H]([N+]5(C)CCCCC5)CC[C@]4(C)[C@H]3CC[C@@]21C
IC50 [1]: 3.49 µM | IC90 (Mus musculus [2]): 5.46 µM | inhibition (Mus musculus [3]): inactive

C[C@]12CC[C@H]([N+]3(C)CCCCC3)C[C@@H]1CC[C@@H]1[C@@H]2CC[C@]2(C)[C@@H](O)[C@@H]([N+]3(C)CCOCC3)C[C@@H]12
IC50 [1]: 13.6 µM
